For one assay, the system named is BT474 (Her2+++). The note with it: anti-HER2 IgG ADC, treatment 5 days, 50% cell growth inhibition. On the procedure: (§1) The antibody used was an anti-HER2 IgG class of antibody. Seven breast cancer cell lines with various level of Her2 expression as indicated with plus or minus signs in the table below were plated in 96 well plate. The ADCs as listed under Drug-Linker ID were serial diluted and added onto cells for treatment for 5 days. At the end of the study, cell proliferation was measured by Promega's CellTitreGlo.

The test system of another assay is HCC1954 (Her2+++). The following applies: anti-HER2 IgG ADC, treatment 5 days, 50% cell growth inhibition. As to the method: as §1
In a further assay the test system is JIMT-1 (Her2+++). The note with it: anti-HER2 IgG ADC, treatment 5 days, 50% cell growth inhibition. On the procedure:
as §1

The subject of another assay is MCF-7 (Her2+/−). The following applies: anti-HER2 IgG ADC, treatment 5 days, 50% cell growth inhibition. As to the method: as §1
A further assay deals with SKBR-3 (Her2+++). The note with it: anti-HER2 IgG ADC, treatment 5 days, 50% cell growth inhibition. As to the method:
as §1

Assay [1] relates to Seven breast cancer cell lines with various level of Her2 expression. In words: Overall assessment of anti-HER2 ADCs over the cell panel (efficacy, toxicity, therapeutic window). Type of assay: cell-based. As to the method:
as §1

Another assay deals with MDA-453 (Her2++). The following applies: anti-HER2 IgG ADC, treatment 5 days, 50% cell growth inhibition. As to the method: as §1
In the next assay the test system is MDA468 (Her2−). The following applies: anti-HER2 IgG ADC; MDA468 (Her2−) control cell line; treatment 5 days; 50% cell growth inhibition. On the procedure: as §1

These results are taken from patent publication US20170281758A1, “CAL[…] DRUG […] AN A[…] TO A SUGAR MOIETY ON CALICHEAMICIN” (Sorrento Therapeutics, Inc., priority 2016, published 2017).

The structures appear in SMILES notation.

Broadly, the EC50 is the concentration at which the effect is half-maximal. Higher therefore signals a need for much substance.

On to `CCN(C(=O)CNC(=O)OCc1ccc(NC(=O)[C@H](CC(N)=O)NC(=O)[C@H](C)NC(=O)[C@H](C)NC(=O)CCC(=O)N2CCC(C(=O)O)CC2)cc1)C1COC(OC2C(O[C@H]3C#C/C=C\C#C[C@]4(O)CC(=O)C(NC(=O)OC)=C3/C4=C\CSSC(C)(C)CC(=O)NCC(O)CO)OC(C)C(NOC3CC(O)C(SC(=O)c4c(C)c(I)c(OC5OC(C)C(O)C(OC)C5O)c(OC)c4OC)C(C)O3)C2O)CC1OC` (stereo partly drawn) [Compound 15], for which the EC50 in the assay on BT474 (Her2+++) is 1.46 nM; in the assay with HCC1954 (Her2+++), 0.064 nM; in the assay with JIMT-1 (Her2+++), 0.17 nM; in the assay with MCF-7 (Her2+/−) it was > 100 nM; with SKBR-3 (Her2+++), 0.17 nM. Besides, the “Assessment of efficacy and toxicity / therapeutic window” value in assay [1] is “successful candidates with high efficacy and good therapeutic window”.

As to `CCN(C(=O)CNC(=O)OCc1ccc(NC(=O)[C@H](C)NC(=O)[C@@H](NC(=O)CCCn2nnc(CBr)c2CBr)C(C)C)cc1)C1COC(OC2C(O[C@H]3C#C/C=C\C#C[C@]4(O)CC(=O)C(NC(=O)OC)=C3/C4=C\CSSC(C)(C)CCC(=O)NCCOCCOCCOCCO)OC(C)C(NOC3CC(O)C(SC(=O)c4c(C)c(I)c(OC5OC(C)C(O)C(OC)C5O)c(OC)c4OC)C(C)O3)C2O)CC1OC` (stereo partly drawn) [Compound 30], the EC50 in the assay on BT474 (Her2+++) turned out to be 1.41 nM; in the assay with JIMT-1 (Her2+++), 0.09 nM; in the assay on MCF-7 (Her2+/−), 0.5 nM; in the assay with MDA-453 (Her2++) it was 0.05 nM; in the assay with MDA468 (Her2−), 24 nM; in the assay with SKBR-3 (Her2+++), 0.065 nM. Also, the “Assessment of efficacy and toxicity / therapeutic window” value in assay [1] is “successful candidates with high efficacy and good therapeutic window”.

Consider `CCN(C(=O)CNC(=O)OCc1ccc(NC(=O)[C@H](C)NC(=O)[C@@H](NC(=O)CCCC(=O)O)C(C)C)cc1)C1COC(OC2C(O[C@H]3C#C/C=C\C#C[C@]4(O)CC(=O)C(NC(=O)OC)=C3/C4=C\CSSC(C)CCC(=O)NCC(O)CO)OC(C)C(NOC3CC(O)C(SC(=O)c4c(C)c(I)c(OC5OC(C)C(O)C(OC)C5O)c(OC)c4OC)C(C)O3)C2O)CC1OC` (stereo partly drawn) [Compound 37], for which the EC50 in the assay on BT474 (Her2+++) was determined as 1.53 nM; in the assay with JIMT-1 (Her2+++), 0.141 nM; in the assay on MCF-7 (Her2+/−), 0.33 nM; in the assay on MDA-453 (Her2++), 0.33 nM; in the assay on MDA468 (Her2−) it was 16.9 nM; in the assay on SKBR-3 (Her2+++), 0.234 nM. The “Assessment of efficacy and toxicity / therapeutic window” value in assay [1] was “successful candidates with high efficacy and good therapeutic window”.

Take `CCN(C(=O)CNC(=O)OCc1ccc(NC(=O)[C@H](C)NC(=O)[C@@H](NC(=O)CCCC(=O)O)C(C)C)cc1)C1COC(OC2C(O[C@H]3C#C/C=C\C#C[C@]4(O)CC(=O)C(NC(=O)OC)=C3/C4=C\CSSC(C)CCC(=O)NC3C(O)OC(CO)C(O)C3O)OC(C)C(NOC3CC(O)C(SC(=O)c4c(C)c(I)c(OC5OC(C)C(O)C(OC)C5O)c(OC)c4OC)C(C)O3)C2O)CC1OC` (stereo partly drawn) [Compound 40]: the EC50 with BT474 (Her2+++) worked out at 0.9 nM; in the assay on JIMT-1 (Her2+++), 0.35 nM; with MCF-7 (Her2+/−), 90 nM; in the assay on MDA-453 (Her2++) it was 0.1 nM; in the assay with MDA468 (Her2−), 41.7 nM; with SKBR-3 (Her2+++) it was 0.657 nM. Moreover, in assay [1], the “Assessment of efficacy and toxicity / therapeutic window” value was “successful candidates with high efficacy and good therapeutic window”.
